The subject of this assay is human basophils. Kind of assay: antidegranulating or antiactivating activity on human basophils by flow cytometry (anti-IgE stimulation, CD63 label). In kind it is cell-based. Particulars: in vitro, same experimental conditions as the oligosaccharides. Here is the method:
In order to test the antidegranulating or antiactivating activity of the oligosaccharides on human basophils by flow cytometry, leukocyte suspensions from different individuals selected as being good at responding to anti-IgE were used to isolate the leukocytes, by simple sedimentation at 1 g. These leukocytes are preincubated for 30 minutes with successive dilutions from 10 to 0.01 mg/ml of the test product. The basophils are then stimulated with a target concentration of a human anti-IgE labeled with a mixture of anti-IgE FITC and anti-CD63PE antibodies, CD63 being an activation label for human basophils. The percentages of activation or of inhibition are then calculated by flow cytometry. The biological activity of the oligosaccharides was thus evaluated.
The same biological tests were performed on structural analogs such as raffinose or oligosaccharides comprising an α bond between a galactose unit and another saccharide unit such as in melibiose.
Tests were thus undertaken. […] The percentage of inhibition was calculated by repeating the experiment three times.
(In general: Flow cytometry measures light scatter and fluorescence of single cells or particles in a stream.)

“Also recorded” adds a separate entry of the source.

On to `OC[C@H]1O[C@H](OCC2O[C@@H](O)[C@H](O)[C@@H](O)[C@@H]2O)[C@H](O)[C@@H](O)[C@H]1O` (stereo partly shown) [melibiose], for which the “activity on leukocytes / mastocytes” value was “not active; also recorded: absolutely no activity”.
